Measurements as given in patent EP0383941B1, “ULTRAVIOLET ABSORBING COSMETIC” (priority 1988, dated 1990).
Converted amounts (≈) assume the structure as drawn.

Experiments:
[1] = Measurement of water resistance (hot water treatment of aqueous suspension, extinction coefficient and TG-DTA); format: physicochemical; settings: for Water resisting stability: 10 % by weight aqueous suspension, 80°C for 2 hours, change of molecular extinction coefficient in λmax; for Change of TG-DTA: before and after hot water treatment (80°C, 2 hours)
Procedure: Fifty milliliters each of aqueous suspensions containing 10 % by weight of a cyclic imino ester and a comparative sample, respectively was prepared, and allowed to stand in a constant temperature bath of 80°C for 2 hours.
Then, 50 ml of isopropyl alcohol was added thereto, and the water and the solvent were removed using a rotary evaporator, and the residue was taken out.
This residue was measured for molecular extinction coefficient in λmax according to a similar manner to Example 1, and its change was used as a measure of water resistance. [formula] Further, the samples before and after hot water treatment were measured for TG-DTA, and its change was examined.

[2] = Measurement of ultraviolet ray-absorbing ability (spectrophotometer); format: physicochemical; settings: 1,1,2,2-tetrachloroethane, 5x10⁻⁴ g/100 ml, optical path length 1 cm; for E 1%, 1cm: at λmax
Procedure: There were measured ultraviolet ray-absorbing ability of the cyclic imino esters used in accordance with the invention and a commercially available known ultraviolet absorber (4-t-butyl-4'-methoxy-dibenzoylmethane).
The measurement was carried out using 1,1,2,2-tetrachloroethane as a solvent and Hitachi 330 type spectrophotometer under the conditions of an ultraviolet absorber concentration of 5x10⁻⁴ g/100 ml and an optical path length of 1 cm.

[3] = Measurement of solubility in water, alcohols and oily cosmetic bases; format: physicochemical; settings: 15°C
[4] = system: skin; assay: Primary irritation to the skin; format: in vivo, white rabbits; settings: for Formation of erythema or eschar: animals judged +: grade + (Well defined erythema)
Procedure: This experiment was carried out according to the following method. • 1) Eight white rabbits (weighing 2.0 to 3.0 kg) whose fur on the back was cut are grouped into two groups each consisting of 4 animals. Animals of one group (blank) were fixed as they were in braces and those of the other group were fixed in braces after excoriation at the site to be tested. • 2) Vaseline base containing 25 % by weight of a test substance was applied onto a lint cloth, and the resulting lint cloth was stuck on the surface of skin. • 3) Whole body of the rabbit was wrapped with moisture-proof rubber for dental use to prevent movement of the stuck lint cloth and at the same time evaporation of volatile substance. • 4) Twenty-four hours thereafter the lint cloth was removed and the test site was observed. Second and third observations are made 48 and 72 hours thereafter, respectively. The average of evaluation after 24 and 72 hours was calculated as a final evaluation point. • 5) Evaluation was made by independently judging formation of erythema and eschar, and edema, specifically according to the following criteria.

[5] = system: Microorganisms; assay: Mutagenicity test using microorganisms; format: cell-based; settings: test on mutagenicity using microorganisms
Procedure: This experiment was carried out based on "About Test on Mutagenicity Using Microorganisms", a notification of the Director of the Standard Bureau, the Ministry of Labor, Japan dated May 18, 1985.

[6] = system: skin; assay: Allergic contact dermatitis test (Guinea Pig Maximization Test); set-up: species or system white female guinea pigs; settings: in vivo
Procedure: Method: This experiment was carried out as follows based on "Guinea Pig Maximization Test" (Magnusson, B. & Klingman, A. M: Usefulness of guinea pig tests for detection of contact sensitizers, In Advances in Modern Toxicology. Vol 4, pp 551-560 Hemisphere Publishing Co., Washington & London, 1977) 1) The fur on the scapula of white female guinea pigs weighing 300 to 500 g was cut in an area of 4 x 6 cm. 2) Each sample was intradermally injected into a guinea pig at the positions (1), (2) and (3) shown in Figure 1 with • (1) 0.1 ml of Freund's complete adjuvant alone; • (2) 0.1 ml of test substance alone; or • (3) sample w/o emulsified with 0.1 ml of Freund's complete adjuvant 3) The fur at the sites was cut one week after the intradermal injection, and a […] test substance, 10 % sodium lauryl sulfate (vaseline base), was applied thereon. 4) Vaseline containing 25 % by weight of the test substance was spread on a filter paper of 2 x 4 cm and occlusive pasting was conducted for 48 hours. 5) The fur at the side of the body of a guinea pig shown at (4) in Figure 1 was cut in an area of 5 x 5 cm two weeks after the occlusive pasting. 6) The test substance was applied onto a filter paper of 2 x 2 cm, and occlusive pasting was conducted for 24 hours. 7) Measurement was carried out according to the following criterion: […]

[7] = system: skin; assay: Contact photosensitization (Adjuvant-Strip method); format: in vivo, Hartley white guinea pigs; settings: for Contact photosensitization (result in words): Adjuvant-Strip method
Procedure: (1) Hartley white guinea pigs weighing 370 to 420 g were used. (2) The fur at the cervical part of guinea pigs was cut by an eletric hair clipper, and the part was further shaved with an electric razor. (3) A section of 2 x 4 cm was set at the cervical part, and 0.1 ml portions of Freund's complete adjuvant w/o emulsified with sterilized distilled water were intradermally injected at the four corners. (4) The skin of the section of 2 x 4 cm was subjected to stripping with cellophane tape to cause light erythema. […] (6) After the application, 6 lamps in total, namely 3 sunlamps (Toshiba FL-40SE30) and 3 black lights (Toshiba FL-40SBLB) were arranged in parallel, 70 minutes irradiation was carried out at a distance of 10 cm from the light sources. Total energy of the irradiation at this time was 12.0 J/cm². (7) The procedures (4), (5) and (6) were repeated 5 times every other day. […] (9) 24 Hours after the epilation, 4 sections each of 1.5 cm x 1.5 cm were set in two rows using the medium line as a symmetry axis. (10) This site was coated with the test substance and irradiated for 70 minutes at a distance of 10 cm from 6 black lights. […] (11) Judgement was made 24 and 48 hours after the irradiation according to the following criterion: [Judgement criterion]

[8] = Vaseline base containing 25 % by weight, 4 rabbits
[9] = grade +++ (Severe erythema to slight formation of eschar), Vaseline base containing 25 % by weight, 4 rabbits
[10] = 3 = Erythema in middle to heavy degree, guinea pigs

## O=c1oc(-c2ccc3cc(-c4nc5ccccc5c(=O)o4)ccc3c2)nc2ccccc12
[1]
  Water resisting stability: 96.7%

## O=c1oc(-c2ccc(-c3ccc(-c4nc5ccccc5c(=O)o4)cc3)cc2)nc2ccccc12
[2]
  λmax (maximum absorption wavelength): 348 nm
  λs (absorption intiation wavelength): 395 nm
  E 1%, 1cm: 1300
[1]
  Water resisting stability: 97.6%

## COc1ccc(C(=O)CC(=O)c2ccccc2C(=O)O)cc1 [4-methoxy-2'-sodium carboxylate-dibenzoylmethane, reference compound]
[1]
  Water resisting stability: 52.0%

## COc1ccc(C(=O)CC(=O)c2ccc(C(C)(C)C)cc2)cc1 [4-t-butyl-4'-methoxydibenzoylmethane, 4-t-butyl-4'-methoxy-dibenzoylmethane]
[2]
  λmax (maximum absorption wavelength): 360 nm
  λs (absorption intiation wavelength): 400 nm
  E 1%, 1cm: 1040
[3]; Water
  solubility: 0.0002 mg/mL (≈ 0.000644 mM)
[3]; organic solvent or mixture, Castor oil
  solubility: 96 mg/mL (≈ 309 mM)
[3]; organic solvent or mixture, Ethanol
  solubility: 16 mg/mL (≈ 51.5 mM)
[3]; organic solvent or mixture, Glycerin
  solubility: 2.5 mg/mL (≈ 8.05 mM)
[3]; organic solvent or mixture, Isopropyl myristate
  solubility: 53 mg/mL (≈ 171 mM)
[3]; organic solvent or mixture, Light liquid paraffin
  solubility: 8.5 mg/mL (≈ 27.4 mM)
[3]; organic solvent or mixture, Olive oil
  solubility: 19 mg/mL (≈ 61.2 mM)
[1]
  Water resisting stability: 89.4%
  Change of TG-DTA: genera-tion of subpeak

## O=c1oc(-c2ccc(-c3nc4ccccc4c(=O)o3)cc2)nc2ccccc12 [A, 2,2'-p-phenylenebis(3,1-benzoxazin-4-one)]
[2]
  λmax (maximum absorption wavelength): 350 nm
  λs (absorption intiation wavelength): 385 nm
  E 1%, 1cm: 1270
[1]
  Water resisting stability: 96.9%
  Change of TG-DTA: no change
[4]; rabbit, in vivo
  Formation of edema (animals): 0/4
  Formation of erythema or eschar: animals judged ++: 0/4
  Formation of erythema or eschar: animals judged +++: 0/4
  Formation of erythema or eschar: animals judged -: 4/4
  Formation of erythema or eschar: animals judged ±: 0/4
[5]
  Mutagenicity: No mutagenicity was observed
[6]
  Judgement 0 (animals): 4/4
  Judgement 1 (animals): 0/4
  Judgement 2 (animals): 0/4
[7]; guinea pigs
  Contact photosensitization (result in words): not observed at all
[7]; guinea pig, in vivo
  Formation of erythema, judgement 0 (animals): 10/10
  Formation of erythema, judgement 1 (animals): 0/10
  Formation of erythema, judgement 2 (animals): 0/10
  Formation of erythema, judgement 3 (animals): 0/10

## O=c1oc(-c2ccc(-c3ccc(-c4nc5ccccc5c(=O)o4)cc3)cc2)nc2ccccc12 [B, 2,2'-(4,4'-diphenylene)bis(3,1-benzoxazin-4-one)]
[4]; [8]
  Formation of edema (animals): 0/4
  Formation of erythema or eschar: animals judged +: Same as left
[4]; [9]
  Formation of erythema or eschar: animals judged +++: Same as left
[5]
  Mutagenicity: No mutagenicity was observed
[7]; [10]
  Formation of erythema, judgement 3 (animals): Same as left
[7]; guinea pigs
  Contact photosensitization (result in words): not observed at all

## O=c1oc(-c2ccc3cc(-c4nc5ccccc5c(=O)o4)ccc3c2)nc2ccccc12 [C, 2,2'-(2,6-naphthylene)bis(3,1-benzoxazin-4-one)]
[2]
  λmax (maximum absorption wavelength): 354 nm
  λs (absorption intiation wavelength): 400 nm
  E 1%, 1cm: 1070
[4]; [8]
  Formation of edema (animals): 0/4
  Formation of erythema or eschar: animals judged +: Same as left
[4]; [9]
  Formation of erythema or eschar: animals judged +++: Same as left
[5]
  Mutagenicity: No mutagenicity was observed
[7]; 0 = No erythema, 24 and 48 hours after irradiation, 10.2 J/cm², guinea pigs
  Formation of erythema, judgement 0 (animals): 9/10
[7]; 1 = Erythema in very light degree, guinea pigs
  Formation of erythema, judgement 1 (animals): 1/10
[7]; [10]
  Formation of erythema, judgement 3 (animals): Same as left
[7]; guinea pigs
  Contact photosensitization (result in words): Very slight contact photosensitization was observed
